According to patent EP1534672B1, “RETINOL DERIVATIVES, THEIR USE IN THE TREATMENT OF CANCER AND FOR POTENTIATING THE EFFICACY OF OTHER CYTOTOXIC AGENTS” (priority 2002, dated 2004):

Tests used:
[1] = tested on: Human Breast Adenocarcinoma Cell Line MDA-MB-231; test: Drug cytotoxicity testing (viable cell count, trypan blue exclusion, cell growth inhibition); type: cell-based; details: compound alone, working solutions in MEM with 5% FBS, two days; for inhibition at 0.1 µM / inhibition at 0.01 µM / inhibition at 0.001 µM: Homo sapiens, MDA-MB-231, 48 h, read-out: cell growth inhibition
Experimental: MDA-MB-231 cells were propagated in MEM culture medium with 2 mM L-glutamine, 10% heat-inactivated fetal bovine serum (FBS) and antibiotics. DU 145 cells were cultured in MEM culture medium containing 2 mM L-glutamine, 1 mM sodium pyruvate, 10% FBS and antibiotics. SKOV-3 cells were cultured in McCoy's 5A culture medium, supplemented with 1,5 mM L-glutamine, 10% FBS and antibiotics. A549 cells were cultured in Ham's F-12 culture medium with 1 mM L-glutamine, 10% FBS and antibiotics. All media and supplements were purchased from Sigma-Aldrich (St.Louis, MO, USA). Cell propagation of all lines was carried out in Falcon™ 25 cm^2 cultivation flasks (Becton Dickinson Labware).
Drug cytotoxicity testing was carried out with using Falcon™ 96-well cultivation plates for adherent cells (Becton Dickinson Labware). These plates were seeded by cells either at 12 × 10^3 MDA-MB-231 cells/well, or at 12 × 10^3 DU 145 cells/well, or at 14 × 10^3 SKOV-3 cells/well, or at 10 × 10^3 A549 cells/well in a volume of 200 µL/well.
The cell cultures in cultivation plates were allowed to adhere for 24 hour of incubation. On day 1 after cell seeding, 2 µL solutions of the drugs to be tested in medium with 5% FBS was added to the cultures. In the control cultures, 2 µL of medium with 5% FBS was added as solvent control. The cells were incubated for 2 consecutive days. At the end of the incubation period adherent cells were detached by trypsinization and the number of viable cells was counted using trypan blue exclusion test and a hemocytometer. All data were derived from an average of three determinations each in six replicates. The results were expressed as mean cell number ± SE and the differences between control and test series evaluated by means of Student's t-test. The drug cytotoxicity was evaluated based on the extent of cell growth inhibition. The cell growth inhibition of the tested drugs was calculated as follows: Cell growth inhibition,% = (Control-TestSeries)/(Control) × 100 [formula]
In the case of comparative evaluation of cytotoxicity of the inventive compounds themselves and the formulation related to consecutive dilutions of their initial solutions before adding to the cultures, 2 µL solutions of the drugs to be tested in medium with 5% FBS, in normal saline and in saline with 2,3 mM CaCl2 were added to the cultures. In control cultures, 2 µL of medium with 5% FBS, normal saline and saline with 2,3 mM CaCl2 were added as solvent controls (negative controls). […] Therefore an average of negative controls was calculated. […] Therefore an average of positive controls was calculated (for each antibiotic).

[2] = rat, in vivo, ip
Experimental: A single dose i.p. toxicity study in rats was carried out. […] The minimal lethal dose is thus above 100 mg/kg body weight for these compounds.

[3] = final concentration 10^-7 mol/L
[4] = final concentration 10^-8 mol/L
[5] = final concentration 10^-9 mol/L

| Structure (SMILES) | inhibition at 0.1 µM [1, 3] [%] | inhibition at 0.01 µM [1, 4] [%] | inhibition at 0.001 µM [1, 5] [%] | number of viable cells [1, 5] | number of viable cells [1, 3] | number of viable cells [1, 4] | minimal lethal dose [2] |
| --- | --- | --- | --- | --- | --- | --- | --- |
| CC1=C(/C=C/C(C)=C/C=C/C(C)=C\C(=O)N[C@@H](CS(=O)(=O)O)C(=O)OC(C)C)C(C)(C)CCC1 [compound II-1c, N-(13-cis-retinoyl)-L-cysteic acid isopropyl ester] | 50.4 | 47 | 42.6 | 33.6 ± 2.75 × 10^3 | – | – | – |
| CCCOC(=O)[C@H](CS(=O)(=O)O)NC(=O)\C=C(C)/C=C/C=C(C)/C=C/C1=C(C)CCCC1(C)C [compound II-1d, N-(13-cis-retinoyl)-L-cysteic acid propyl ester] | 53.7 | 50.4 | 44.9 | 31.3 ± 2.68 × 10^3 | 26.3 ± 1.86 × 10^3 | 28.2 ± 1.29 × 10^3 | – |
| CCCCOC(=O)[C@H](CS(=O)(=O)O)NC(=O)\C=C(C)/C=C/C=C(C)/C=C/C1=C(C)CCCC1(C)C [compound II-1e, N-(13-cis-retinoyl)-L-cysteic acid butyl ester] | – | 50.7 | 45.6 | 30.9 ± 1.82 × 10^3 | – | – | – |
| CC1=C(/C=C/C(C)=C/C=C/C(C)=C\C(=O)N[C@@H](CCS(=O)(=O)O)C(=O)O)C(C)(C)CCC1 [compound II-3, N-(13-cis-Retinoyl)-L-homocysteic acid] | – | – | – | – | – | – | above 100 mg/kg body weight |
